From paper PMC8318231, “Rate-of-Kill (RoK) assays to triage large compound sets for Chagas disease drug discovery: Application to GSK Chagas Box” (PLoS Neglected Tropical Diseases, 2021)

Columns and labels:
[1] = test system: T. cruzi Tulahuen trypomastigotes; assay: T. cruzi trypomastigote assay (Cell Titer-Glo viability, ATP luminescence); type: cell-based, Trypanosoma cruzi; conditions: for Trypomastigotes pIC50 48 hours: 48 hours incubation; for Trypomastigotes pIC50 48 hours / Trypomastigotes pIC50 72 hours: pIC50 = -log10 IC50 in molar units; for Trypomastigotes pIC50 72 hours: 72 hours incubation; for 72 pIC50 (trypomastigotes, raw data of Fig 1D): 72 hours, plotted values, censored values given without sign; for 48 pIC50 / 72 pIC50: trypomastigote assay; for 48 pIC50: 48 h; for 72 pIC50: 72 h
Outline: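 Tulahuen trypomastigotes from infected LLC-MK2 culture supernatants (days 5–8) plated at 5 × 10^4 per well in DMEM/2% FBS with compound at 5 μM single-shot final or in dose response. Viability by CellTiter-Glo ATP luminescence after 10 min at room temperature, normalised to no-cell (100%) and DMSO (0%) controls.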

[2] = test system: H9c2 (rat cardiomyocytes); assay: RoK assay, number of host cells nuclei (drug-related cytotoxicity, H9c2 output, Cmin_Tox); conditions: H9c2 host cells
Outline: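 H9c2 rat cardiomyocytes infected with T. cruzi trypomastigotes, plated in 384-well format, compound-treated and imaged over a time course. Host nuclei counted after formaldehyde fixation and DRAQ5 staining by high-content imaging. Cmin_Tox is the lowest concentration reducing host cells below 50% of initial density.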

TcCYP51 = conditions: formerly reported; cited from earlier work

| Compound | Trypomastigotes pIC50 48 hours [1] | Trypomastigotes pIC50 72 hours [1] | 72 pIC50 (trypomastigotes, raw data of Fig 1D) [1] | 48 pIC50 ([1]; figure 1A) | 72 pIC50 ([1]; figure 1A) | 72 pIC50 ([1]; figure 1B) | Cmin_Tox [2] [µM] | CYP51 pIC50 (TcCYP51) |
| --- | --- | --- | --- | --- | --- | --- | --- | --- |
| O=C(NCC1CCCCC1)c1cc(=O)c2ccccc2o1 [TCMDC-123621] | 5 | 5 | 5 | 5 | 5 | 5 | 50.0 | < 4 |
| Cl.O=c1cc(NCCCNC2CCOc3c(I)cc(Cl)cc32)[nH]c2ccccc12 (centres unmarked) [TCMDC-139489] | 5.8 | 6 | – | – | – | – | 50.0 | 4.8 |
| Cc1cccc(N2CCCN(Cc3c[nH]c4ccccc34)CC2)n1 [TCMDC-143185] | 6.7 | – | – | – | – | – | 5.6 | < 4 |
| O=C(NCCc1cccnc1)c1ccc(-c2ccccc2F)o1 [TCMDC-143190] | < 4.3 | < 4.3 | < 4.3 | < 4.3 | < 4.3 | < 4.3 | >50 | 7.2 |
| COc1ccc(NS(=O)(=O)c2cc(-c3cc(C)[nH]n3)ccc2C)cc1OC [TCMDC-143194] | 4.7 | 5.2 | – | – | – | – | 18.5 | 4.4 |
| O=S(=O)(c1cccc(CSc2nnc(-c3ccc4c(c3)OCO4)o2)c1)N1CCOCC1 [TCMDC-143197] | < 4.3 | < 4.3 | < 4.3 | < 4.3 | < 4.3 | < 4.3 | >50 | 4.9 |
| CC1CN(S(=O)(=O)c2ccc(NC(=O)c3cc(C4CC4)nc4c3cnn4C(C)C)cc2)CC(C)O1 (centres unmarked) [TCMDC-143200] | 5.3 | 4.8 | – | – | – | – | >50 | < 4 |
| O=C(NCCc1cccnc1)c1csc(-c2ccccc2)n1 [TCMDC-143203] | < 4.3 | < 4.3 | < 4.3 | < 4.3 | < 4.3 | < 4.3 | >50 | 7.2 |
| CC(=O)Nc1nc(-c2cc(C)ccc2C)c(C)s1 [TCMDC-143207] | < 4.3 | < 4.3 | < 4.3 | < 4.3 | < 4.3 | < 4.3 | >50 | < 4 |
| Cn1nccc1-c1cc(OC(CN)c2ccccc2)cnc1-c1ccco1.O=C(O)C(F)(F)F.O=C(O)C(F)(F)F (centres unmarked) [TCMDC-143221] | 4.4 | < 4.3 | – | – | – | – | >50 | 7.2 |
| CS(=O)(=O)c1ccc(CC(=O)Nc2nc(-c3ccc(Cl)s3)cs2)cc1 [TCMDC-143224] | < 4.3 | < 4.3 | < 4.3 | < 4.3 | < 4.3 | < 4.3 | >50 | < 4 |
| CCN(C)Cc1ccc(N2CCC(NS(=O)(=O)c3ccc4c(c3)CCO4)CC2)nc1 [TCMDC-143244] | < 4.3 | < 4.3 | < 4.3 | < 4.3 | < 4.3 | < 4.3 | >50 | < 4 |
| COc1ccc(S(=O)(=O)NC(C)C)cc1Nc1ncc(-c2cccc(F)c2)cn1 [TCMDC-143248] | < 4.3 | < 4.3 | < 4.3 | < 4.3 | < 4.3 | < 4.3 | >50 | < 4 |
| O=C(NCCc1ccccc1Cl)c1cccn1-c1cccnc1 [TCMDC-143253] | < 4.3 | < 4.3 | < 4.3 | < 4.3 | < 4.3 | < 4.3 | >50 | 7.1 |
| COc1ccc(S(=O)(=O)Nc2ccccc2OC)cc1NC(=O)CCCc1c[nH]c2ccccc12 [TCMDC-143256] | 5 | 4.9 | – | – | – | – | >50 | < 4 |
| COc1ccc2c(Cl)c(C(=O)N3CCC3)sc2c1Cl [TCMDC-143262] | 6.2 | 6.4 | – | – | – | – | >50 | < 4 |
| CCN(CC)S(=O)(=O)c1ccc(C(=O)Nc2cc(C)nn2-c2nc(C)c(C)c(=O)[nH]2)cc1 [TCMDC-143273] | 6.2 | 6.3 | – | – | – | – | >50 | < 4 |
| COc1ccc(C(C)(C)C)cc1S(=O)(=O)n1ccnc1 [TCMDC-143275] | < 4.3 | < 4.3 | < 4.3 | < 4.3 | < 4.3 | < 4.3 | >50 | 8.1 |
| CCCn1c(NC(=O)Cc2ccc(Cl)cc2)nc2ccccc21 [TCMDC-143279] | 5.9 | 6 | – | – | – | – | >50 | < 4 |
| CCC(=O)Nc1ccc(C(=O)Nc2ccccc2-c2ccccc2)cc1 [TCMDC-143286] | 5.9 | 6 | – | – | – | – | >50 | < 4 |
| Cc1cccnc1CN1CCN(CCCOc2ccc(-c3ccc(C(N)=O)cc3)cc2)CC1 [TCMDC-143291] | 4.8 | 4.4 | – | – | – | – | >50 | < 4 |
| COc1ccc(C(C)N(C)c2ncc3c(N)nc(N)nc3n2)cc1F (centres unmarked) [TCMDC-143298] | 6.5 | 6.7 | – | – | – | – | >50 | < 4 |
| O=C(NCc1ccncc1)c1ccccc1N1CCCN(C(=O)Cc2ccc(F)c(F)c2)CC1.O=C(O)C(F)(F)F.O=C(O)C(F)(F)F [TCMDC-143300] | < 4.3 | < 4.3 | < 4.3 | < 4.3 | < 4.3 | < 4.3 | >50 | 7.1 |
| O=C(O)C(F)(F)F.O=c1ccc2ccc(F)c3c2n1C[C@H]3CN1CCC(NCc2cc3ccccc3o2)CC1 [TCMDC-143301] | 4.5 | 4.4 | – | – | – | – | >50 | 4.5 |
| CS(=O)(=O)NC1CCC(Oc2cc3cnccc3cc2-c2ccsc2)CC1.O=C(O)C(F)(F)F (centres unmarked) [TCMDC-143302] | 4.5 | < 4.3 | – | – | – | – | >50 | 7.6 |
| FC(F)(F)c1cc(C2CCCN(Cc3c[nH]c4ccccc34)C2)nc2ncnn12.O=C(O)C(O)C(O)C(=O)O (centres unmarked) [TCMDC-143311] | 4.9 | 5.2 | – | – | – | – | >50 | – |
